Assays:
[1] = Growth inhibition of human MCF10 cells at 10 to 150 ug/ml after 24 hrs by MTT assay; assay type: cell-based; conditions: mcf10, 24 h
Pseudomonas aeruginosa = assay: Antibacterial activity against Pseudomonas aeruginosa MTCC 424 at 250 ug/ml after 24 hrs by agar well diffusion method; assay type: functional; conditions: MTCC 424, 24 h, read-out: IZ
DNA gyrase subunit A = DNA gyrase subunit A (Staphylococcus aureus, UniProt P20831); assay: Inhibition of Staphylococcus aureus DNA gyrase A expressed in Escherichia coli BL21(DE3) using relaxed pBR322 DNA as substrate incubated for 1 hr by bromophenol blue dye based agarose gel electrophoresis method
[2] = Growth inhibition of human MCF7 cells at 10 to 150 ug/ml after 24 hrs by MTT assay relative to control; assay type: functional
[3] = Growth inhibition of human MCF7 cells after 24 hrs by MTT assay; assay type: functional, cell-based; conditions: MCF7, 24 h
Streptococcus pyogenes = assay: Antibacterial activity against Streptococcus pyogenes MTCC 442 at 250 ug/ml after 24 hrs by agar well diffusion method; assay type: functional; conditions: MTCC 442, 24 h, read-out: IZ
Escherichia coli = assay: Antibacterial activity against Escherichia coli MTCC 443 at 250 ug/ml after 24 hrs by agar well diffusion method; assay type: functional; conditions: MTCC 443, 24 h, read-out: IZ
Staphylococcus aureus = assay: Antibacterial activity against Staphylococcus aureus MTCC 96 at 250 ug/ml after 24 hrs by agar well diffusion method; assay type: functional; conditions: MTCC 96, 24 h, read-out: IZ
[4] = Growth inhibition of human G361 cells after 24 hrs by MTT assay; assay type: functional, cell-based; conditions: G-361, 24 h
[5] = Growth inhibition of human G361 cells at 10 to 150 ug/ml after 24 hrs by MTT assay relative to control; assay type: functional, G-361

Sequence of DNA gyrase subunit A (P20831 whole entry): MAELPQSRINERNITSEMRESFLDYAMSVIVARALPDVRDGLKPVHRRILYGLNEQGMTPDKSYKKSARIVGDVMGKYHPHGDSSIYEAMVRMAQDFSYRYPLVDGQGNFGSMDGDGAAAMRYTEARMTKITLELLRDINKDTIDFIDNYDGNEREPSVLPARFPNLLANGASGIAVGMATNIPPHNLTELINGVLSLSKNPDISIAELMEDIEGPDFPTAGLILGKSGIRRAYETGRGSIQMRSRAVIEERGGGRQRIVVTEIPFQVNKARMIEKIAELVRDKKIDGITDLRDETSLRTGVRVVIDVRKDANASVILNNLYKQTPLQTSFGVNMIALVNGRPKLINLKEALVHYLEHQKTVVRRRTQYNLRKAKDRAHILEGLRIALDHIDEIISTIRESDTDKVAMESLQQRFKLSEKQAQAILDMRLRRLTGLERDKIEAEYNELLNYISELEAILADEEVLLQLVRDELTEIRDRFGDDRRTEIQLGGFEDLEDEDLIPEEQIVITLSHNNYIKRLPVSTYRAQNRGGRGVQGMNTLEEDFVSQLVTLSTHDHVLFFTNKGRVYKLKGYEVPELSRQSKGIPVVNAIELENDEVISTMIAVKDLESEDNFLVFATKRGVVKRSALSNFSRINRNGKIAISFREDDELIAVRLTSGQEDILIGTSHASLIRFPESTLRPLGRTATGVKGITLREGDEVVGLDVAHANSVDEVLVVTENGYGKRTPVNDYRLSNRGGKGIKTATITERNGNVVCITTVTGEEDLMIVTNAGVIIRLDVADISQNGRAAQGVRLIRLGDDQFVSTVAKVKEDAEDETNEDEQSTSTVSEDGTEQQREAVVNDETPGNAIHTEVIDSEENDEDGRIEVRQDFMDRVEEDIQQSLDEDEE

SMILES | growth inhibition (GI) [1] | zone of inhibition at 250 µg/mL (Pseudomonas aeruginosa) [mm] | IC50 (DNA gyrase subunit A) [nM] | growth inhibition (GI) [2] [%] | IC50 [3] [nM] | zone of inhibition at 250 µg/mL (Streptococcus pyogenes) [mm] | zone of inhibition at 250 µg/mL (Escherichia coli) [mm] | zone of inhibition at 250 µg/mL (Staphylococcus aureus) [mm] | IC50 [4] [nM] | growth inhibition (GI) [5] [%]
COc1ccc2nc(-c3cccc(Oc4ccccc4)c3)cc(-c3ccccc3)c2c1 | Non-Toxic | 10.8 | 530 to 11500 | 74.49 | 548 | 22.7 | 21.4 | 29.6 | 2020 | 59.27
Clc1ccc2nc(-c3cccc(Oc4ccccc4)c3)cc(-c3ccccc3)c2c1 | Non-Toxic | 6.89 | 525 to 11300 | 32.14 | 11000 | 20.2 | 18.1 | 21.6 | 12000 | 30.45
Oc1c(Cl)cc2nc(-c3cccc(Oc4ccccc4)c3)cc(-c3ccccc3)c2c1Cl | Non-Toxic | 21.3 | 467 | 73.17 | 702 | 29.2 | 26 | 38.5 | 2000 | 60.34
Fc1ccc2nc(-c3cccc(Oc4ccccc4)c3)cc(-c3ccccc3)c2c1 | Non-Toxic | 10.4 | 912 to 994 | 60.25 | 1680 | 18.5 | 18.3 | 29.9 | 3850 | 46.24
Oc1ccc2nc(-c3cccc(Oc4ccccc4)c3)cc(-c3ccccc3)c2c1 | Non-Toxic | 16.5 | 842 to 1070 | 72.56 | 694 | 29.8 | 26.5 | 34.6 | 2070 | 58.46
Brc1ccc2nc(-c3cccc(Oc4ccccc4)c3)cc(-c3ccccc3)c2c1 | Non-Toxic | 9.79 | 473 to 10200 | 30.81 | 11100 | 22.4 | 16.4 | 22.5 | 14600 | 28.89
Cc1cc2nc(-c3cccc(Oc4ccccc4)c3)cc(-c3ccccc3)c2cc1C | Non-Toxic | 11.4 | 533 to 11500 | 48.34 | 3410 | 22.5 | 22.5 | 27.5 | 5840 | 38.18
N#Cc1ccc2nc(-c3cccc(Oc4ccccc4)c3)cc(-c3ccccc3)c2c1 | Non-Toxic | 12.7 | 537 to 11600 | 70.64 | 822 | 21.2 | 16.5 | 26.5 | 2150 | 54.38
CO[C@@H]1[C@@H](OC(=O)c2ccc(C)[nH]2)[C@@H](O)[C@H](Oc2ccc3c(O)c(NC(=O)c4ccc(O)c(CC=C(C)C)c4)c(=O)oc3c2Cl)OC1(C)C [CHLOROBIOCIN] |  |  | 930 |  |  |  |  |  |  | 
O=C(O)c1cn(C2CC2)c2cc(N3CCNCC3)c(F)cc2c1=O [CIPROFLOXACIN] |  | 21 to 23.8 |  |  |  | 18 to 24.4 | 21 to 26.7 | 21 to 26.4 |  | 
COc1cccc2c1C(=O)c1c(O)c3c(c(O)c1C2=O)C[C@@](O)(C(=O)CO)C[C@@H]3O[C@H]1C[C@H](N)[C@H](O)[C@H](C)O1 [DOXORUBICIN] |  |  |  | 71.56 | 812 to 1200 |  |  |  |  | 

Source: ChEMBL document CHEMBL3877314, “Molecular docking, discovery, synthesis, and pharmacological properties of new 6-substituted-2-(3-phenoxyphenyl)-4-phenyl quinoline derivatives; an approach to developing potent DNA gyrase inhibitors/antibacterial agents” (Bioorg Med Chem, 2017)
